{"source": "patent US10736316B2", "about": "“Silica particles functionalized and loaded with fungicidal agents, their manufacture and their use as systems of targeted and controlled release of fungicides” (priority 2015, dated 2020)", "key": {"[1]": {"assay": "Analysis of free imazalil in treatment water by HPLC", "type": "physicochemical", "details": "for [IMZ] free in water: treatment water at the moment of treatment; for Reduction of [IMZ] in water: versus reference treatment water", "description": "(§1) 1 ml of test solution of loaded microparticles was filtered through a nylon 0.45 micron syringe filter and later analyzed by HPLC (Agilent 1100 Series).\nChromatographic Conditions:\n60% Phosphate buffer pH=2.5, 2 mM\n(§2) For the LD treatments, IMZ LD C18 and IMZ LD C12, suspensions of (IMZ)SG-C18-OH and (IMZ)SG-C12-OH at 6 g/l in tap water buffered with 10 mM of sodium etidronate at pH=7.5 was prepared from the concentrated suspensions described in examples 7 and 8. […] As a control, a treatment of bathing in tap water was carried out (CONTROL).\n(§3) The reduction of free fungicide in water is calculated as: 100×(concentration of free fungicide in reference treatment water−concentration of free fungicide in LD treatment water)/concentration of free fungicide in reference treatment water. Likewise, the reduction of fungicide residues in fruits is calculated as: 100×(fungicide residues in fruit in reference treatment−fungicide residues in fruit in LD treatment)/fungicide residues in fruit in reference treatment."}, "[2]": {"assay": "Analysis of free pyrimethanil in treatment water by HPLC", "type": "physicochemical", "details": "example 17", "description": "as §3\nThis experiment was carried out following the same procedure as for examples 9-14. The free pyrimethanil residues in water and virtual were analyzed according to examples 18 and 19. For the reference conventional treatment (PIRREF) a solution of pyrimethanil at 525 mg/l in tap water was prepared from a commercial solution at 40% (PENBOTEC). For the LD treatment (PIR LD C18) a suspension of (PIR)SG-C18-OH of 14 g/l in tap water buffered with sodium etidronate 10 mM at pH=7.5 was prepared from the concentrated suspension described in example 16. A 14 g/l suspension correspond to a virtual pyrimethanil concentration contained within the microparticles of 525 mg/l. As a control, a treatment of bathing in tap water was carried out (CONTROL).\nas §1\n(§4) Chromatographic Conditions: […]"}, "Penicillium digitatum": {"system": "Penicillium digitatum", "assay": "Rotting control (RRI) in oranges of Valencia variety inoculated with P. digitatum", "type": "in vivo", "details": "7 days at 22° C. and 85% RH", "description": "Without previous washing or treatment, fruits from the same batch, receive from field, were randomized in groups of 25. Each treatment was performed with 4 replicates of 25 fruits, which were artificially inoculated on one side by pricking with a punch (2 mm length, 1 mm diameter) previously impregnated in a solution of Penicillium digitatum or Penicillium italicum spores of 5*10^5 cfu/ml and allowed to stand for 17 hours before treatment.\nas §2\nThe 25 fruits of each replicate were bathed using a mesh by immersion for 30 seconds in 10 l of treatment. […] After this time, the number of rotten fruits were counted for each replicate. The effectiveness of the treatments is expressed as % rotting and also as rotting reduction index (RRI, %), which is calculated as: 100×(No. of rotten control fruits−No. of rotten products in the treatment)/No. of rotten fruits in the control.\nThis experiment was carried out following the same procedure as for examples 9-14. The free pyrimethanil residues in water and virtual were analyzed according to examples 18 and 19. […]"}, "[3]": {"assay": "Analysis of free thiabenzadol in treatment water by HPLC", "type": "physicochemical", "details": "example 22", "description": "as §3\nThis experiment was carried out following the same procedure as for examples 9-14. The free thiabenzadol residues in water and virtual were analyzed according to examples 23 and 24. For the reference conventional treatment (TBZ REF) a solution of thiabenzadol at 1200 mg/l in tap water was prepared from a commercial solution at 40% (TEXTAR). For the LD treatment (TBZ LD C18) a suspension of (TBZ)SG-C18-OH of 16 g/l in tap water buffered with sodium etidronate 10 mM at pH=7.5 was prepared from the concentrated suspension described in example 21. A 16 g/l suspension correspond to a virtual thiabenzadol concentration contained within the microparticles of 1200 mg/l. As a control, a treatment of bathing in tap water was carried out (CONTROL).\nas §1, §4"}, "[4]": {"details": "treatment water at the moment of treatment"}, "[5]": {"details": "versus reference treatment water"}}}
{"compound": "imazalil sulfate [IMZ REF]", "values": [{"measurement": "[IMZ] free in water", "setting": "[1]; example 9", "result": 450, "unit": "mg/L"}, {"measurement": "Reduction of [IMZ] in water", "setting": "[1]; example 9", "result": 0.0, "unit": "%"}, {"measurement": "[IMZ] free in water", "setting": "[1]; example 10", "result": 450, "unit": "mg/L"}, {"measurement": "Reduction of [IMZ] in water", "setting": "[1]; example 10", "result": 0.0, "unit": "%"}, {"measurement": "[IMZ] free in water", "setting": "[1]; example 11", "result": 450, "unit": "mg/L"}, {"measurement": "Reduction of [IMZ] in water", "setting": "[1]; example 11", "result": 0.0, "unit": "%"}, {"measurement": "[IMZ] free in water", "setting": "[1]; example 12", "result": 450, "unit": "mg/L"}, {"measurement": "Reduction of [IMZ] in water", "setting": "[1]; example 12", "result": 0.0, "unit": "%"}, {"measurement": "[IMZ] free in water", "setting": "[1]; example 13", "result": 450, "unit": "mg/L"}, {"measurement": "Reduction of [IMZ] in water", "setting": "[1]; example 13", "result": 0.0, "unit": "%"}, {"measurement": "[IMZ] free in water", "setting": "[1]; example 14", "result": 450, "unit": "mg/L"}, {"measurement": "Reduction of [IMZ] in water", "setting": "[1]; example 14", "result": 0.0, "unit": "%"}]}
{"compound": "Cc1cc(C)nc(Nc2ccccc2)n1", "note": "[PIR REF, pyrimethanil]", "values": [{"measurement": "[PIR] free in water", "setting": "[2]; [4]", "result": 525, "unit": "mg/L"}, {"measurement": "Reduction of [PIR] in water", "setting": "[2]; [5]", "result": 0.0, "unit": "%"}, {"measurement": "rotting reduction index (RRI)", "setting": "Penicillium digitatum; example 17, FIG. 16, 14 g/l (PIR)SG-C18-OH in etidronic buffer pH=7.5 or pyrimethanil 525 mg/l", "result": "~90", "unit": "%"}]}
{"compound": "c1ccc2[nH]c(-c3cscn3)nc2c1", "note": "[TBZ REF, thiabenzadol]", "values": [{"measurement": "[TBZ] free in water", "setting": "[3]; [4]", "result": 1200, "unit": "mg/L"}, {"measurement": "Reduction of [TBZ] in water", "setting": "[3]; [5]", "result": 0.0, "unit": "%"}, {"measurement": "rotting reduction index (RRI)", "setting": "Penicillium digitatum; example 22, FIG. 18, 16 g/l (TBZ)SG-C18-OH in etidronic buffer pH=7.5 or thiabenzadol 1200 mg/l", "result": 100, "unit": "%"}]}
